One compound from patent publication US8426458B2, “Hepatitis C Virus inhibitors” (priority 2009, dated 2013) can be followed below.

This assay concerns HCV 1b genotype replicon. In words: HCV replicon assay (qRT-PCR or luciferase), genotype 1b. It counts as cell-based. The following applies: Hepatitis C virus, read-out: Genotype-1b replicon EC50 Range. The source says:
HCV replicon cell lines (kindly provided by R. Bartenschlager) isolated from colonies as described by Lohman et. al. (Lohman et al. (1999) Science 285: 110-113, expressly incorporated by reference in its entirety) and used for all experiments. The HCV replicon has the nucleic acid sequence set forth in EMBL Accession No.: AJ242651, the coding sequence of which is from nucleotides 1801 to 8406.
The coding sequence of the published HCV replicon was synthesized and subsequently assembled in a modified plasmid pBR322 (Promega, Madison, Wis.) using standard molecular biology techniques. […]
EC50 values of single agent compounds and combinations were determined by HCV RNA detection using quantitative RT-PCR, according to the manufacturer's instructions, with a TaqMan® One-Step RT-PCR Master Mix Reagents Kit (Cat# AB 4309169, Applied Biosystems) on an ABI Model 7500 thermocycler. The TaqMan primers used for detecting and quantifying HCV RNA were obtained from Integrated DNA Technologies. HCV RNA was normalized to GAPDH RNA levels in drug-treated cells, which is detected and quantified using the Human GAPDH Endogenous Control Mix (Applied Biosystems, AB 4310884E). […] Chemical agent cytotoxicity is evaluated using an MTS assay according to the manufacturer's directions (Promega). […]

The term EC50 denotes the concentration at which the effect is half-maximal. For `CN(C)[C@H](C(=O)N1CCC[C@H]1c1nc(C(=O)N[C@H]2CC[C@H](NC(=O)c3c[nH]c([C@@H]4CCCN4C(=O)[C@@H](c4ccccc4)N(C)C)n3)CC2)c[nH]1)c1ccccc1` [Example 2], the EC50 was more than 10 nM.
